Experiments:
Type in all cases: physicochemical
[1] = UV-visible titration and Job's plot, coordination to Cu2+; details: for Job's plot isosbestic point, mol fraction of Cu2+: 5 mM total in DMSO; for coordination stoichiometry with Cu2+: Job's method, 5 mM in DMSO
Method: The UV–visible spectrum was used to reveal their coordination properties to Cu^2+. […] The increased absorption at 481 nm and 475 nm (Fig. 3, A and B, inset) definitely indicated the complexation of 4GA–Cu^2+ and 2GA–Cu^2+, respectively. The coordination stoichiometry of 4GA and 2GA with Cu^2+ was determined by Job’s plot analysis (Fig. 3, C and D). […] However, their macrocyclic precursors (cyclen and N-methylated cyclen 2ME]) were evaluated to coordinate with Cu^2+ by 1:1 mode (Fig. S9). The different coordination mode with Cu^2+ was supposed to be the synergistic coordination effects of galloyl side arms, in addition to the central azacrown structure.
The chelating studies were performed on Hitachi U-2900 UV–visible spectrophotometer with a 10-mm quartz cell. For titration experiment, the UV absorption of test compound (1 mM in DMSO) was recorded in the presence of CuCl2 (0–6 equivalents of Cu^2+ for 4GA, 0–5 equivalents of Cu^2+ for 2GA, respectively). For Job’s method, a series of solution was prepared in which the total concentration of compound and Cu^2+ was fixed (5 mM in DMSO), but their proportions of ether component varied between 0% and 100%, and the UV spectra were analyzed to determine the ratio of ligand–Cu^2+.
Figure S9. The chemical structure of cyclen derivates (upper), and the determination of the stoichiometry of complex (A) cyclen-Cu^2+, (B) 1ME-Cu^2+, (C) 2ME-Cu^2+, (D) 3ME-Cu^2+, (E) 4ME-Cu^2+ (5 mM) by Job’s method.

[2] = Solubility; details: for solubility in polar organic solvent: DMSO
Excerpt: (§1) Therefore, in the following experiments, they were first dissolved in DMSO and further diluted in an excess of buffer. […] Logically, 1,4,7,10-tetramethyl-1,4,7,10-tetraazacyclododecane (4ME) and GA (compound structure was shown in Fig. S1) are considered as the precursor of 4GA and 2GA and therefore used as a comparative study to confirm whether the ancillary ligand had any effect on aggregation.

[3] = Stability in Hepes by UV-visible absorption; details: Hepes 50 mM, pH 7.4, 0.2% DMSO; 10 μM, 37 °C; 72 h
Method: as §1
Figure S8. The stability of 4GA (A) and 2GA (B) in HEPES (50 mM, pH 7.4, 0.2% DMSO) verified by UV-vis absorption spectroscopy. All sample concentrations were 10 μM and kept at 37℃ in atmosphere.

## O=C(c1cc(O)c(O)c(O)c1)N1CCN(C(=O)c2cc(O)c(O)c(O)c2)CCN(C(=O)c2cc(O)c(O)c(O)c2)CCN(C(=O)c2cc(O)c(O)c(O)c2)CC1 [4GA, (1,4,7,10-tetraazacyclododecane-1,4,7,10-tetrayl)tetrakis((3,4,5-trihydroxyphenyl)methanone)]
[1]
  Job's plot isosbestic point, mol fraction of Cu2+: 0.7 mol fraction
  coordination stoichiometry with Cu2+: can bind with two Cu^2+ ions
[2]
  solubility in water: slightly soluble in water
  solubility in polar organic solvent: soluble in polar organic solvent such as dimethyl sulfoxide (DMSO)
[3]
  stability in buffer: remain stable at 72 h

## CN1CCN(C(=O)c2cc(O)c(O)c(O)c2)CCN(C)CCN(C(=O)c2cc(O)c(O)c(O)c2)CC1 [2GA, (4,10-dimethyl-1,4,7,10-tetraazacyclododecane-1,7-diyl)bis((3,4,5-trihydroxyphenyl)methanone)]
[1]
  Job's plot isosbestic point, mol fraction of Cu2+: 0.7 mol fraction
  coordination stoichiometry with Cu2+: can bind with two Cu^2+ ions
[2]
  solubility in water: slightly soluble in water
  solubility in polar organic solvent: soluble in polar organic solvent such as dimethyl sulfoxide (DMSO)
[3]
  stability in buffer: remain stable at 72 h

From article PMC12455130, “Multifunctional molecular agent for tau-targeted combinational therapy of Alzheimer’s disease” (The Journal of Biological Chemistry, 2025)
